Results: patent US9113629B2, “4-amino-6-(4-substituted-phenyl)-picolinates and 6-amino-2-(4-substituted-phenyl)-pyrimidine-4-carboxylates and their use as herbicides” (DOW AGROSCIENCES LLC, priority 2013, dated 2015)
Read-outs that look alike come from different tables or passages of the source.

Key:
[1] = system: Key Broadleaf Weed and Crop Species; test: Post-emergent Test II herbicidal activity (Table 5); type: in vivo; conditions: post-emergence, 336 h, 14 days after application; for pest or weed control at 70 g/ha: application rate 70 g ai/ha; for pest or weed control at 140 g/ha: application rate 140 g ai/ha
Procedure, shortened: (§1)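 Percent injury, 0 (none) to 100 (complete kill), was judged visually 14 d after spraying young plants at the first or second true leaf stage with compound in an acetone/DMSO aqueous carrier at 187 L/ha. Plants were kept in a greenhouse at 23–29 °C by day.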

[2] = system: Key Grass and Sedge Weeds as well as Grass Crops; test: Post-emergent Test II herbicidal activity (Table 6); type: in vivo; conditions: post-emergence, 336 h; for pest or weed control at 70 g/ha: 70 g ai/ha; for pest or weed control at 140 g/ha: 140 g ai/ha
Procedure, shortened: as §1

[3] = ABUTH: velvetleaf (Abutilon theophrasti), read-out: Visual Growth Reduction (%) 14 Days After Application, ABUTH
[4] = AMARE: redroot pigweed (Amaranthus retroflexus), read-out: Visual Growth Reduction (%) 14 Days After Application, AMARE
[5] = BRSNN: oilseed-rape, canola (Brassica napus), read-out: Visual Growth Reduction (%) 14 Days After Application, BRSNN
[6] = CHEAL: lambsquarters (Chenopodium album), read-out: Visual Growth Reduction (%) 14 Days After Application, CHEAL
[7] = EPHHL: wild poinsettia (Euphorbia heterophylla), read-out: Visual Growth Reduction (%) 14 Days After Application, EPHHL
[8] = HELAN: sunflower (Helianthus annuus), read-out: Visual Growth Reduction (%) 14 Days After Application, HELAN
[9] = VIOTR: wild pansy (Viola tricolor), read-out: Visual Growth Reduction (%) 14 Days After Application, VIOTR
[10] = CYPES: yellow nutsedge (Cyperus esculentus), read-out: Visual Growth Reduction (%) 14 Days After Application, CYPES
[11] = DIGSA: crabgrass (Digitaria sanguinalis), read-out: Visual Growth Reduction (%) 14 Days After Application, DIGSA
[12] = ECHCG: barnyardgrass (Echinochloa crus-galli), read-out: Visual Growth Reduction (%) 14 Days After Application, ECHCG
[13] = ORYSA: rice (Oryza sativa), crop, read-out: Visual Growth Reduction (%) 14 Days After Application, ORYSA
[14] = SETFA: giant foxtail (Setaria faberi), read-out: Visual Growth Reduction (%) 14 Days After Application, SETFA
[15] = SORVU: grain sorghum (Sorghum vulgare), read-out: Visual Growth Reduction (%) 14 Days After Application, SORVU
[16] = TRZSS (wheat, Triticum aestivum), crop, read-out: Visual Growth Reduction (%) 14 Days After Application, TRZSS
[17] = ZEAMX: maize, corn (Zea mays), crop, read-out: Visual Growth Reduction (%) 14 Days After Application, ZEAMX

Row | SMILES | pest or weed control at 70 g/ha [1, 3] | pest or weed control at 140 g/ha [1, 3] | pest or weed control at 70 g/ha [1, 4] | pest or weed control at 140 g/ha [1, 4] | pest or weed control at 70 g/ha [1, 5] | pest or weed control at 140 g/ha [1, 5] | pest or weed control at 70 g/ha [1, 6] | pest or weed control at 140 g/ha [1, 6] | pest or weed control at 70 g/ha [1, 7] | pest or weed control at 140 g/ha [1, 7] | pest or weed control at 70 g/ha [1, 8] | pest or weed control at 140 g/ha [1, 8] | pest or weed control at 70 g/ha [1, 9] | pest or weed control at 140 g/ha [1, 9] | pest or weed control at 70 g/ha [2, 10] | pest or weed control at 140 g/ha [2, 10] | pest or weed control at 70 g/ha [2, 11] | pest or weed control at 140 g/ha [2, 11] | pest or weed control at 70 g/ha [2, 12] | pest or weed control at 140 g/ha [2, 12] | further results
1 | COC(=O)c1nc(-c2ccc(C(F)(F)F)c(F)c2F)c(F)c(N)c1Cl [Compound 149] | 95 to 100% | 95 to 100% | 95 to 100% | 95 to 100% | 85 to 94% | 95 to 100% | 95 to 100% | 95 to 100% | 95 to 100% | 95 to 100% | 95 to 100% | 95 to 100% | 85 to 94% | 85 to 94% | 95 to 100% | 95 to 100% | 30 to 44% | 30 to 44% | 95 to 100% | 95 to 100% | pest or weed control at 70 g/ha [2, 13]: 0 to 29%; pest or weed control at 140 g/ha [2, 13]: 0 to 29%; pest or weed control at 70 g/ha [2, 14]: 30 to 44%; pest or weed control at 140 g/ha [2, 14]: 30 to 44%; pest or weed control at 70 g/ha [2, 15]: 95 to 100%; pest or weed control at 140 g/ha [2, 15]: 95 to 100%; pest or weed control at 70 g/ha [2, 16]: 30 to 44%; pest or weed control at 140 g/ha [2, 16]: 45 to 59%; pest or weed control at 70 g/ha [2, 17]: 75 to 84%; pest or weed control at 140 g/ha [2, 17]: 85 to 94%; melting point: 131 to 132 °C
2 | COC(=O)c1nc(-c2ccc(I)c(F)c2F)nc(N)c1OC [Compound 24, methyl 6-amino-2-(2,3-difluoro-4-iodophenyl)-5-methoxypyrimidine-4-carboxylate] | 95 to 100% | 95 to 100% | 75 to 84% | 85 to 94% | 95 to 100% | 95 to 100% | 95 to 100% | 95 to 100% | 95 to 100% | 95 to 100% | 85 to 94% | 95 to 100% | 45 to 59% | 95 to 100% | 95 to 100% | 95 to 100% | 45 to 59% | 60 to 74% | 95 to 100% | 95 to 100% | pest or weed control at 70 g/ha [2, 13]: 0 to 29%; pest or weed control at 140 g/ha [2, 13]: 0 to 29%; pest or weed control at 70 g/ha [2, 14]: 60 to 74%; pest or weed control at 140 g/ha [2, 14]: 85 to 94%; pest or weed control at 70 g/ha [2, 15]: 85 to 94%; pest or weed control at 140 g/ha [2, 15]: 85 to 94%; pest or weed control at 70 g/ha [2, 16]: 0 to 29%; pest or weed control at 140 g/ha [2, 16]: 30 to 44%; pest or weed control at 70 g/ha [2, 17]: 95 to 100%; pest or weed control at 140 g/ha [2, 17]: 95 to 100%; melting point: 169 to 170 °C
